Reference: US20130269064A1, “INSECTICIDAL COMPOUNDS” (SYNGENTA PARTICIPATIONS AG, priority 2010, published 2013)

How the values were obtained:
Type in all cases: in vivo
[1] = tested on: Plutella xylostella; experiment: Plutella xylostella (diamond back moth) artificial diet test; details: 144 h, 200 ppm (concentration in well 18 ppm), L2 larvae, 6 days, larval mortality and growth regulation
Protocol: (§1) Plutella xylostella (Diamond Back Moth): A 24-well microtiter plate (MTP) with artificial diet was treated with test solutions at an application rate of 200 ppm (concentration in well 18 ppm) by pipetting. After drying, the MTP's were infested with L2 larvae (7-12 per well). After an incubation period of 6 days, samples were checked for larval mortality and growth regulation.

[2] = tested on: Diabrotica balteata; experiment: Diabrotica balteata (corn root worm) artificial diet test; details: 120 h, 200 ppm (concentration in well 18 ppm), L2 larvae, 5 days, larval mortality and growth regulation
Protocol: as §1, with “Diabrotica balteata (Corn Root Worm):” for “Plutella xylostella (Diamond Back Moth):”, “with” for “with L2”, “(L2) (6-10” for “(7-12”, “5” for “6”, “mortality,” for “mortality”

[3] = tested on: Spodoptera littoralis; experiment: Spodoptera littoralis (Egyptian cotton leafworm) cotton leaf disc test; details: foliar, 72 h, 200 ppm sprayed on cotton leaf discs, 5 L1 larvae, mortality, feeding behaviour, growth regulation 3 DAT
Description: Spodoptera littoralis (Egyptian Cotton Leafworm): Cotton leaf discs were placed on agar in a 24-well microtiter plate and sprayed with test solutions at an application rate of 200 ppm. After drying, the leaf discs were infested with 5 L1 larvae. The samples were checked for mortality, feeding behaviour, and growth regulation 3 days after treatment (DAT).

[4] = tested on: Heliothis virescens; experiment: Heliothis virescens (tobacco budworm) egg/artificial diet test; details: 96 h, 200 ppm (concentration in well 18 ppm), eggs 0-24 h old on artificial diet, 4 days, egg mortality, larval mortality, growth regulation
Protocol: Heliothis virescens (Tobacco Budworm): Eggs (0-24 h old) were placed in 24-well microtiter plate on artificial diet and treated with test solutions at an application rate of 200 ppm (concentration in well 18 ppm) by pipetting. After an incubation period of 4 days, samples were checked for egg mortality, larval mortality and growth regulation.

[5] = tested on: Tetranychus urticae; experiment: Tetranychus urticae (two-spotted spider mite) bean leaf disc test; details: foliar, 192 h, 200 ppm sprayed on bean leaf discs, mixed ages, 8 days, egg, larval and adult mortality
Description: Tetranychus urticae (Two-Spotted Spider Mite): Bean leaf discs on agar in 24-well microtiter plates were sprayed with test solutions at an application rate of 200 ppm. After drying, the leaf discs are infested with mite populations of mixed ages. 8 days later, discs are checked for egg mortality, larval mortality, and adult mortality.

Measured: pest or weed control at 200 ppm

Cn1nc(C(F)(F)C(F)(F)F)c(C(F)(F)F)c1NC(=O)c1cccc(NC(=O)c2ccccc2F)c1F [Compound B1]
not listed: [5]
≥ 80%: all other assays above

Cn1nc(C(F)(F)C(F)(F)F)c(C(F)(F)F)c1NC(=O)c1cccc(NC(=O)c2ccccc2Cl)c1F [Compound B3]
not listed: [5]
≥ 80%: all other assays above

Cn1nc(C(F)(F)C(F)(F)F)c(C(F)(F)F)c1NC(=O)c1cccc(NC(=O)c2ccc(C#N)cc2)c1F [Compound B4]
≥ 80%: all assays above

Cn1nc(C(F)(F)C(F)(F)F)c(C(F)(F)F)c1NC(=O)c1cccc(NC(=O)c2ccc([N+](=O)[O-])cc2)c1F [Compound B5]
≥ 80%: all assays above

Cc1ccc(C(=O)Nc2cccc(C(=O)Nc3c(C(F)(F)F)c(C(F)(F)C(F)(F)F)nn3C)c2F)cc1 [Compound B6]
not listed: [5]
≥ 80%: all other assays above

Cn1nc(C(F)(F)C(F)(F)F)c(C(F)(F)F)c1NC(=O)c1cccc(NC(=O)c2ccc(F)cc2)c1F [Compound B17]
≥ 80%: all assays above

Cn1nc(C(F)(F)C(F)(F)F)c(C(F)(F)F)c1NC(=O)c1cccc(NC(=O)c2cccc(F)c2F)c1F [Compound B21]
not listed: [5]
≥ 80%: all other assays above

Cn1nc(C(F)(F)C(F)(F)F)c(C(F)(F)F)c1NC(=O)c1cccc(NC(=O)c2ccc(F)cc2F)c1F [Compound B22]
not listed: [5]
≥ 80%: all other assays above

Cc1ccccc1C(=O)Nc1cccc(C(=O)Nc2c(C(F)(F)F)c(C(F)(F)C(F)(F)F)nn2C)c1 [Compound D2]
not listed: [5]
≥ 80%: all other assays above

Cn1nc(C(F)(F)C(F)(F)F)c(C(F)(F)F)c1NC(=O)c1cccc(NC(=O)c2ccc(C#N)cc2)c1 [Compound D4]
≥ 80%: [5] | [2]

Cn1nc(C(F)(F)C(F)(F)F)c(C(F)(F)F)c1NC(=O)c1cccc(NC(=O)c2ccc([N+](=O)[O-])cc2)c1 [Compound D5]
not listed: [5]
≥ 80%: all other assays above

Cc1cc(F)ccc1C(=O)Nc1cccc(C(=O)Nc2c(C(F)(F)F)c(C(F)(F)C(F)(F)F)nn2C)c1 [Compound D7]
≥ 80%: all assays above

Cn1nc(C(F)(F)C(F)(F)F)c(C(F)(F)F)c1NC(=O)c1cccc(NC(=O)c2ccc(OC(F)(F)F)cc2)c1 [Compound D11]
not listed: [5]
≥ 80%: all other assays above

Cn1nc(C(F)(F)C(F)(F)F)c(C(F)(F)F)c1NC(=O)c1cccc(NC(=O)c2ccc(F)c(C(F)(F)F)c2)c1 [Compound D12]
≥ 80%: [2] | [4]

Cn1nc(C(F)(F)C(F)(F)F)c(C(F)(F)F)c1NC(=O)c1cccc(NC(=O)c2ccccc2OC(F)(F)F)c1 [Compound D14]
≥ 80%: [2]

Cn1nc(C(F)(F)C(F)(F)F)c(C(F)(F)F)c1NC(=O)c1cccc(NC(=O)c2ccccc2C(F)(F)F)c1 [Compound D18]
≥ 80%: [2] | [3] | [4]

Cn1nc(C(F)(F)C(F)(F)F)c(C(F)(F)F)c1NC(=O)c1cccc(NC(=O)c2cc(C(F)(F)F)ccc2F)c1 [Compound D23]
≥ 80%: [2] | [3] | [4]

Cc1cc(C#N)ccc1C(=O)Nc1cccc(C(=O)Nc2c(C(F)(F)F)c(C(F)(F)C(F)(F)F)nn2C)c1 [Compound D24]
not listed: [4]
≥ 80%: all other assays above

Cc1ccccc1C(=O)Nc1cc(C(=O)Nc2c(C(F)(F)F)c(C(F)(F)C(F)(F)F)nn2C)ccc1Cl [Compound E2]
≥ 80%: [3]

Cn1nc(C(F)(F)C(F)(F)F)c(C(F)(F)F)c1NC(=O)c1ccc(Cl)c(NC(=O)c2ccccc2Cl)c1 [Compound E3]
not listed: [5]
≥ 80%: all other assays above

Cn1nc(C(F)(F)C(F)(F)F)c(C(F)(F)F)c1NC(=O)c1ccc(Cl)c(NC(=O)c2ccc(C#N)cc2)c1 [Compound E4]
not listed: [5]
≥ 80%: all other assays above

Cn1nc(C(F)(F)C(F)(F)F)c(C(F)(F)F)c1NC(=O)c1ccc(Cl)c(NC(=O)c2ccc([N+](=O)[O-])cc2)c1 [Compound E5]
≥ 80%: [1] | [2] | [4]

Cc1cc(F)ccc1C(=O)Nc1cc(C(=O)Nc2c(C(F)(F)F)c(C(F)(F)C(F)(F)F)nn2C)ccc1Cl [Compound E7]
≥ 80%: all assays above

Cn1nc(C(F)(F)C(F)(F)F)c(C(F)(F)F)c1NC(=O)c1ccc(Cl)c(NC(=O)c2ccc([N+](=O)[O-])cc2Cl)c1 [Compound E9]
≥ 80%: [5] | [2]

Cn1nc(C(F)(F)C(F)(F)F)c(C(F)(F)F)c1NC(=O)c1ccc(Cl)c(NC(=O)c2ccc(F)c(C(F)(F)F)c2)c1 [Compound E12]
≥ 80%: [2]

Cn1nc(C(F)(F)C(F)(F)F)c(C(F)(F)F)c1NC(=O)c1ccc(Cl)c(NC(=O)c2ccc(C(F)(F)F)cc2)c1 [Compound E13]
≥ 80%: [2] | [4]

Cn1nc(C(F)(F)C(F)(F)F)c(C(F)(F)F)c1NC(=O)c1ccc(Cl)c(NC(=O)c2ccccc2)c1 [Compound E16]
not listed: [5]
≥ 80%: all other assays above

Cn1nc(C(F)(F)C(F)(F)F)c(C(F)(F)F)c1NC(=O)c1ccc(Cl)c(NC(=O)c2ccc(F)cc2)c1 [Compound E17]
not listed: [5]
≥ 80%: all other assays above

Cn1nc(C(F)(F)C(F)(F)F)c(C(F)(F)F)c1NC(=O)c1ccc(Cl)c(NC(=O)c2ccccc2C(F)(F)F)c1 [Compound E18]
≥ 80%: [2]

Cn1nc(C(F)(F)C(F)(F)F)c(C(F)(F)F)c1NC(=O)c1ccc(Cl)c(NC(=O)c2ccc(F)cc2Cl)c1 [Compound E19]
≥ 80%: all assays above

Cn1nc(C(F)(F)C(F)(F)F)c(C(F)(F)F)c1NC(=O)c1ccc(Cl)c(NC(=O)c2cccc(F)c2F)c1 [Compound E21]
≥ 80%: [2] | [4]

Cc1cc(C#N)ccc1C(=O)Nc1cc(C(=O)Nc2c(C(F)(F)F)c(C(F)(F)C(F)(F)F)nn2C)ccc1Cl [Compound E24]
≥ 80%: all assays above

Cc1cc(C#N)ccc1C(=O)Nc1nc(C(=O)Nc2c(C(F)(F)F)c(C(F)(F)C(F)(F)F)nn2C)ccc1C#N [Compound F1]
≥ 80%: [3]

Cn1nc(C(F)(F)C(F)(F)F)c(C(F)(F)F)c1NC(=O)c1ccc(C#N)c(NC(=O)c2ccncc2)n1 [Compound F2]
not listed: [3]
≥ 80%: all other assays above
